Test in all cases: KINOMEscan
Format in all cases: binding
Settings in all cases: read-out: % control activity remaining

Assay [1] deals with T1, AXL (Homo sapiens, UniProt P30530).
T1 construct: purchased Eurofins DiscoverX KINOMEscan
T1 sequence (P30530 26-894): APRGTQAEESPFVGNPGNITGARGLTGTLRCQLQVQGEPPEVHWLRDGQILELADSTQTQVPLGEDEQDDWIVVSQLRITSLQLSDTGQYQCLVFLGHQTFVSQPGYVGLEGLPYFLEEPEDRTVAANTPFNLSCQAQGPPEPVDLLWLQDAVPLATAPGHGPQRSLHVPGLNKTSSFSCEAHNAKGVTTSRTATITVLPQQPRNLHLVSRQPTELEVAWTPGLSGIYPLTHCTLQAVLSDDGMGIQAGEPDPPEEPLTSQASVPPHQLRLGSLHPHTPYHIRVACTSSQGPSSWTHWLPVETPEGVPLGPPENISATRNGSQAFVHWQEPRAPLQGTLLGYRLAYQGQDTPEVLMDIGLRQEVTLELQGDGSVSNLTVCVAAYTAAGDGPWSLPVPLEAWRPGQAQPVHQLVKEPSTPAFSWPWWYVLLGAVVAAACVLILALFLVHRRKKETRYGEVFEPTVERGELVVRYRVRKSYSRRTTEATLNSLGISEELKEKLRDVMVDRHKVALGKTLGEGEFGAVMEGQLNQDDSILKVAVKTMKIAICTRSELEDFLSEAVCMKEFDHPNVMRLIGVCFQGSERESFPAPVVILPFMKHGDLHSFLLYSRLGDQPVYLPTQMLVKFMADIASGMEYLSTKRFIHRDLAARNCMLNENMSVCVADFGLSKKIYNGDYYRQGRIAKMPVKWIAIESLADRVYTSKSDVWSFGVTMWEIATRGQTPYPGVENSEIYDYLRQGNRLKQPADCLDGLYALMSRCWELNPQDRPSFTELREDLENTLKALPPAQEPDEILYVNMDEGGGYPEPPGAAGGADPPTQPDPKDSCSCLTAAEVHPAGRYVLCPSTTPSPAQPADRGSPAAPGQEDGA

Assay [2] addresses T2, EPHB2 (Homo sapiens, UniProt P29323).
T2 construct: purchased Eurofins DiscoverX KINOMEscan
T2 sequence (P29323 19-1055): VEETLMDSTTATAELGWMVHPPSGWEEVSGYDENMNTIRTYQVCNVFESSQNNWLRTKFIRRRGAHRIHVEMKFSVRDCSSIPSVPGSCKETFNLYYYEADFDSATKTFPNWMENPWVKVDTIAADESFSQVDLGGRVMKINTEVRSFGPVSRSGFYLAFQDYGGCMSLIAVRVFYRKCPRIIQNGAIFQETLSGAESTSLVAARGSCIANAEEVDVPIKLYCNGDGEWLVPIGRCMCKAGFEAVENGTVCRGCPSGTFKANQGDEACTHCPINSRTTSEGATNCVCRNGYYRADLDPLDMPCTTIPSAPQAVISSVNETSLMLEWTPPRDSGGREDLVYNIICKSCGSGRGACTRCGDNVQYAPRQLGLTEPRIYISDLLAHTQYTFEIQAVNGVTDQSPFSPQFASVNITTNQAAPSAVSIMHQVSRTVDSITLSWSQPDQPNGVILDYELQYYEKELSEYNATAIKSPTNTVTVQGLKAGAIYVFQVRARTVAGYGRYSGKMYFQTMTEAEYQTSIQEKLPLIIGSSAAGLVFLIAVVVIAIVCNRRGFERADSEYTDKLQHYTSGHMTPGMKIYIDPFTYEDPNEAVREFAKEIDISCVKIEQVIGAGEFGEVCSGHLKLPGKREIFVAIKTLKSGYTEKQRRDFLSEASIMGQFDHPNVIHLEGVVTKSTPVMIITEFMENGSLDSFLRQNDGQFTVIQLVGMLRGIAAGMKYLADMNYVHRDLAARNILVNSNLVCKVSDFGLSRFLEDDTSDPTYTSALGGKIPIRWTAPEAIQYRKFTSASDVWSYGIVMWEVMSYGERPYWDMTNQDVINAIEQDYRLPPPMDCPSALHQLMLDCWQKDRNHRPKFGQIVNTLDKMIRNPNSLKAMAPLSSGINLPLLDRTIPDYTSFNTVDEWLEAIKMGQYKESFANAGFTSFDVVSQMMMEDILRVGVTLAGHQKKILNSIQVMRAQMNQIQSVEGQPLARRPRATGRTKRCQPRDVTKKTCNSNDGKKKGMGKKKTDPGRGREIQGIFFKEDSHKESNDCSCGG

For assay [3], the target named is T3, CAMK1G (Homo sapiens, UniProt Q96NX5).
T3 construct: purchased Eurofins DiscoverX KINOMEscan
T3 sequence (Q96NX5 whole entry): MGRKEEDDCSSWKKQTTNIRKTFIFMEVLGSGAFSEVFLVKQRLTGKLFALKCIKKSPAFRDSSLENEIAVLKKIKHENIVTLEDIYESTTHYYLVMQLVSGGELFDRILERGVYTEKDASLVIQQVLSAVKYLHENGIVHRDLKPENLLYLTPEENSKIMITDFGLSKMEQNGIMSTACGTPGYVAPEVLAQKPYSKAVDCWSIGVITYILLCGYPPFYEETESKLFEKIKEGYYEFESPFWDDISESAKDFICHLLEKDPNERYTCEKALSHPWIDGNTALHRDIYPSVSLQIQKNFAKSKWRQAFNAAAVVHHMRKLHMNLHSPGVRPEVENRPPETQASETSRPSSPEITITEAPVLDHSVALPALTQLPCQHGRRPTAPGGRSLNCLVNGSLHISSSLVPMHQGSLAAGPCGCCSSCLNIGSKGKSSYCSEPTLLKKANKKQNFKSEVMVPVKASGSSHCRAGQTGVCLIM

The target of assay [4] is T4, DRAK2 (Homo sapiens, UniProt O94768).
T4 construct: purchased Eurofins DiscoverX KINOMEscan
T4 sequence (O94768 1-372): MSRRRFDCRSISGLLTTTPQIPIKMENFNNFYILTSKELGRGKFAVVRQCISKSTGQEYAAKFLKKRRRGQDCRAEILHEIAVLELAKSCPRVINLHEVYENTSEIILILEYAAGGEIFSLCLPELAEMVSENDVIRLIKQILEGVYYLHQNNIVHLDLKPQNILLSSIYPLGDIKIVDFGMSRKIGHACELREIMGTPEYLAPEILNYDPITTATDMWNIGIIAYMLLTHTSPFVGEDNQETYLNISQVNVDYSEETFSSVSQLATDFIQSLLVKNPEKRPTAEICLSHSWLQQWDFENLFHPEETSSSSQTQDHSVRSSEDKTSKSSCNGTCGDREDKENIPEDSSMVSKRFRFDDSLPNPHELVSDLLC

The values below come from PMC6437697 (Journal of Medicinal Chemistry, 2019).

As for `Clc1cc(NCC2CC2)c2ncc(-c3ccc4[nH]ncc4c3)n2n1` [compound 2, 6-Chloro-N-(cyclopropylmethyl)-3-(1H-indazol-5-yl)imidazo[1,2-b]pyridazin-8-amine], the remaining binding at 1 µM in assay [1] was determined as 84%; in assay [2], 83%; in assay [3], 76%; in assay [4], 93%.

`O=C(CN1CCOCC1)N[C@H]1CC[C@H](Nc2cc(Cl)nn3c(-c4ccc5[nH]ncc5c4)cnc23)CC1` [compound 26]: the remaining binding at 1 µM was determined as 88% in assay [1], 94% in assay [2], 51% in assay [3] and 61% in assay [4].

As for `CN1CCC(CNc2cc(Cl)nn3c(-c4cc5nc(Nc6ccccc6)[nH]c5cc4F)cnc23)CC1` [compound 31, 6-Chloro-3-(6-fluoro-2-(phenylamino)-1H-benzo[d]imidazol-5-yl)-N-((1-methylpiperidin-4-yl)methyl)imidazo[1,2-b]pyridazin-8-amine], the remaining binding at 1 µM in assay [1] was 99%; in assay [2] it was 96%; in assay [3], 100%; in assay [4], 92%.
